Experiments:
domestic flies [1] = assay: Insecticidal activity on domestic flies, laboratory test (gauze boxes); assay type: in vivo; settings: 0.1% solution in 5% aqueous glucose solution; 50 flies per box; count in 72 hours
Procedure: (§1) Based on the compound there was prepared an insecticidal composition in the form of a 0.1% solution thereof in a 5% aqueous glucose solution. The activity of the insecticidal composition, according to the invention was tested on domestic flies. To this end, into the gauze-made boxes of 10x10 cm in size (6 boxes) 6-7-day flies of both sexes were placed at the rate of 50 individuals per each box. Into 5 boxes there were placed Petri dishes with a 5% aqueous glycose solutiono An insecticidal activity of the composition, according to the invention, was tested in com- parison with an insecticidal composition based on 0,0-dimethyl(1-hydroxy-2,2,2-trichloroethyl)phosphonate. The tests were also conducted in living and production premises. For this, Petri dishes containing a 0.1% aqueous solution of the insecticide of the invention, to which a 5% glucose solution was added, were put at a rate of 2-3 dishes per 20 m^2. The activity of the composition, according to the invention, was evaluated by a direct count of dead insects in 72 hours or by using the adhesive tapes and counting the number of flies on the tape prior and after the test.

Solubility (qualitative) = settings: water, alcohols, acetone
domestic flies [2] = assay: Insecticidal activity on flies, large-scale test in living and production premises; assay type: in vivo; settings: 0.1% aqueous solution with 5% glucose, 2-3 dishes per 20 m^2, living and production premises; 72 hours
Procedure: as §1

Fusarium oxysporum [3] = assay: Inhibition of phytopathogenic fungi growth, laboratory test on potato-dextrose agar; assay type: cell-based; settings: active principle 0.01 % by mass in potato-dextrose agar
Procedure: (§2) A fungicidal composition based on this compound was prepared in the form of a 0.01% solution thereof in distilled water. A fungicidal action of the composition, according to the invention, was tested for inhibition of vegetative fungi growth such as Fusarium moniliforme, Ventura inaequalis, Rhyzoctonia ciolaceae, Botrytis cinereae, Verticillium albo-atrum, Diplodia zeae, Fusarium oxysporum, Rhoma betae, Rhyzoctonia aderholdii, Aspergillus niger, Alternaria sobani, Botrytis allii, Aspergillus fumigatis, Fusarium culmorum, Penicillium cyclopium affecting potato, sugar beet, cotton seeds either in laboratory or field conditions. For testing it to the Petri dishes containing potato-dextrose agar the composition of the invention was.added at the concentration of an active principle of 0.01 % by mass. The Petri dishes containing the same agar culture were inoculated with a mycelium of phytopathogenic fungi. For control dishes the phytopathogenic fungi were inoculated on agar without using the composition of the invention. A fungicidal effect of the composition, according to the invention was tested in comparison with the known fungicidal compositions based on 2,3-dichloro-1,4-naphthoquinone, zinc N,N'-ethylene-bis-dithiocarbamate and tetramethylthiuram disulphide.

Fusarium moniliforme [4] = assay: as above; assay type: cell-based; settings: active principle 0.01 % by mass in potato-dextrose agar
Procedure: as §2

Diplodia zeae [5] = assay: as above; assay type: cell-based; settings: active principle 0.01 % by mass in potato-dextrose agar
Procedure: as §2

Aspergillus niger [6] = assay: as above; assay type: cell-based; settings: active principle 0.01 % by mass in potato-dextrose agar
Procedure: as §2

Verticillium albo-atrum [7] = assay: as above; assay type: cell-based; settings: active principle 0.01 % by mass in potato-dextrose agar
Procedure: as §2

Aspergillus fumigatis [8] = assay: as above; assay type: cell-based; settings: active principle 0.01 % by mass in potato-dextrose agar
Procedure: as §2

Botrytis allii [9] = assay: as above; assay type: cell-based; settings: active principle 0.01 % by mass in potato-dextrose agar
Procedure: as §2

Fusarium culmorum [10] = assay: as above; assay type: cell-based; settings: active principle 0.01 % by mass in potato-dextrose agar
Procedure: as §2

Rhyzoctonia aderholdii [11] = assay: as above; assay type: cell-based; settings: active principle 0.01 % by mass in potato-dextrose agar
Procedure: as §2

Botrytis cinereae [12] = assay: as above; assay type: cell-based; settings: active principle 0.01 % by mass in potato-dextrose agar
Procedure: as §2

Penicillium cyclopium [13] = assay: as above; assay type: cell-based; settings: active principle 0.01 % by mass in potato-dextrose agar
Procedure: as §2

Venturia inaequalis [14] = assay: as above; assay type: cell-based; settings: active principle 0.01 % by mass in potato-dextrose agar
Procedure: as §2

Alternaria sobani [15] = assay: as above; assay type: cell-based; settings: active principle 0.01 % by mass in potato-dextrose agar
Procedure: as §2

Rhyzoctonia violaceae [16] = assay: as above; assay type: cell-based; settings: active principle 0.01 % by mass in potato-dextrose agar
Procedure: as §2

Rhoma betae [17] = assay: as above; assay type: cell-based; settings: active principle 0.01 % by mass in potato-dextrose agar
Procedure: as §2

Fusarium oxysporum [18] = assay: Inhibition of phytopathogenic fungi, field test on affected potato plants; assay type: in vivo; settings: 5 m^2 plots of affected potato plants sprayed
From the text: (§3) For field tests the plots of 5 m^2 in size with potato plants affected by Fusarium moniliforme, Venturia inaequalis, Rhyzoctonia violaceae, Botrytis cinereae, Verticillium albo-atrum, Diplodia zeae, Fusarium oxysporum, Rhoma betae, Rhyzoctonia aderholdii, Aspergillus niger, Alternaria sobani, Botrytis allii, Aspergillus fumigatis, Fusarium culmorum, Penicillium cyclopium were sprayed with the fungicide of the invention. To compare, the similar plots of the affected potato plants were aprayed with the known compositions indicated above.

Fusarium moniliforme [19] = assay: as above; assay type: in vivo; settings: 5 m^2 plots of affected potato plants sprayed
From the text: as §3

Diplodia zeae [20] = assay: as above; assay type: in vivo; settings: 5 m^2 plots of affected potato plants sprayed
From the text: as §3

Aspergillus niger [21] = assay: as above; assay type: in vivo; settings: 5 m^2 plots of affected potato plants sprayed
From the text: as §3

Verticillium albo-atrum [22] = assay: as above; assay type: in vivo; settings: 5 m^2 plots of affected potato plants sprayed
From the text: as §3

Aspergillus fumigatis [23] = assay: as above; assay type: in vivo; settings: 5 m^2 plots of affected potato plants sprayed
From the text: as §3

Botrytis allii [24] = assay: as above; assay type: in vivo; settings: 5 m^2 plots of affected potato plants sprayed
From the text: as §3

Fusarium culmorum [25] = assay: as above; assay type: in vivo; settings: 5 m^2 plots of affected potato plants sprayed
From the text: as §3

Rhyzoctonia aderholdii [26] = assay: as above; assay type: in vivo; settings: 5 m^2 plots of affected potato plants sprayed
From the text: as §3

Botrytis cinereae [27] = assay: as above; assay type: in vivo; settings: 5 m^2 plots of affected potato plants sprayed
From the text: as §3

Penicillium cyclopium [28] = assay: as above; assay type: in vivo; settings: 5 m^2 plots of affected potato plants sprayed
From the text: as §3

Venturia inaequalis [29] = assay: as above; assay type: in vivo; settings: 5 m^2 plots of affected potato plants sprayed
From the text: as §3

Alternaria sobani [30] = assay: as above; assay type: in vivo; settings: 5 m^2 plots of affected potato plants sprayed
From the text: as §3

Rhyzoctonia violaceae [31] = assay: as above; assay type: in vivo; settings: 5 m^2 plots of affected potato plants sprayed
From the text: as §3

Rhoma betae [32] = assay: as above; assay type: in vivo; settings: 5 m^2 plots of affected potato plants sprayed
From the text: as §3

## CCOP(=O)(NC(=O)c1ccc(Cl)c([N+](=O)[O-])c1)OCC [Example 8, diethyl ether of 3-nitro-4-chlorobenzoylamidophosphoric acid]
Domestic flies [1]
  Death of flies, % tests laboratory: 98%
Solubility (qualitative)
  solubility: soluble in water, alcohols, acetone
Domestic flies [2]
  Death of flies, % tests large-scale: 97%

## Cc1ccc(C)c(NP(=O)(NC(=O)c2ccc(Cl)cc2)Nc2cc(C)ccc2C)c1 [Example 2, di-2,5-dimethylanil-ide of para-chlorobenzoylamidophosphoric acid]
Domestic flies [1]
  Death of flies, % tests laboratory: 92%
Solubility (qualitative)
  solubility: soluble in water, alcohols, acetone
Domestic flies [2]
  Death of flies, % tests large-scale: 91%

## COP(=O)(NC(=O)c1ccc(Cl)c([N+](=O)[O-])c1)OC [Example 7, dimethyl ether of 3-mitro-4-chlorobenzoylamidiphos-phoric acid]
Domestic flies [1]
  Death of flies, % tests laboratory: 76%
Solubility (qualitative)
  solubility: soluble in water, alcohols, acetone
Domestic flies [2]
  Death of flies, % tests large-scale: 75%

## O=C(NP(=O)(Nc1ccc(Cl)cc1Cl)Nc1ccc(Cl)cc1Cl)c1ccc(Br)cc1 [Example 13, para-bromobenzoylamidophosphoric acid di-2,4-dichloroanil-ide]
Fusarium oxysporum [3]
  Inhibition of growth of phytopathogenic fungi colonies, % Fusarium oxysporum test laboratory: 44%
Fusarium moniliforme [4]
  Inhibition of growth of phytopathogenic fungi colonies, % Fusatium monili-forme test laboratory: 75%
Diplodia zeae [5]
  Inhibition of growth of phytopathogenic fungi colonies, % Diplodia zeae test laboratory: 100%
Aspergillus niger [6]
  Inhibition of growth of phytopathogenic fungi colonies, % Aspergillus niger test laboratory: 35%
Verticillium albo-atrum [7]
  Inhibition of growth of phytopathogenic fungi colonies, % Verticillium albo--atrum test laboratory: 47%
Aspergillus fumigatis [8]
  Inhibition of growth of phytopathogenic fungi colonies, % Aspergillus fumigatis Tests laboratory: 53%
Botrytis allii [9]
  Inhibition of growth of phytopathogenic fungi colonies, % Botrytis allii test laboratory: 100%
Fusarium culmorum [10]
  Inhibition of growth of phytopathogenic fungi colonies, % Fusarium culmorum Tests laboratory: 100%
Rhyzoctonia aderholdii [11]
  Inhibition of growth of phytopathogenic fungi colonies, % Rhyzoctonia aderholdii test laboratory: 100%
Botrytis cinereae [12]
  Inhibition of growth of phytopathogenic fungi colonies, % Botrytis cinereae test laboratory: 0%
Penicillium cyclopium [13]
  Inhibition of growth of phytopathogenic fungi colonies, % Penicillium cyclopium Tests laboratory: 100%
Venturia inaequalis [14]
  Inhibition of growth of phytopathogenic fungi colonies, % Venturia inaequalis test laboratory: 45%
Alternaria sobani [15]
  Inhibition of growth of phytopathogenic fungi colonies, % Alternaria sobani test laboratory: 100%
Rhyzoctonia violaceae [16]
  Inhibition of growth of phytopathogenic fungi colonies, % Rhyzoctonia violaceae test laboratory: 46%
Rhoma betae [17]
  Inhibition of growth of phytopathogenic fungi colonies, % Rhoma betae test laboratory: 64%
Fusarium oxysporum [18]
  Inhibition of growth of phytopathogenic fungi colonies, % Fusarium oxysporum test field: 43%
Fusarium moniliforme [19]
  Inhibition of growth of phytopathogenic fungi colonies, % Fusatium monili-forme test field: 74%
Diplodia zeae [20]
  Inhibition of growth of phytopathogenic fungi colonies, % Diplodia zeae test field: 100%
Aspergillus niger [21]
  Inhibition of growth of phytopathogenic fungi colonies, % Aspergillus niger test field: 34%
Verticillium albo-atrum [22]
  Inhibition of growth of phytopathogenic fungi colonies, % Verticillium albo--atrum test field: 46%
Aspergillus fumigatis [23]
  Inhibition of growth of phytopathogenic fungi colonies, % Aspergillus fumigatis Tests field: 50%
Botrytis allii [24]
  Inhibition of growth of phytopathogenic fungi colonies, % Botrytis allii test field: 100%
Fusarium culmorum [25]
  Inhibition of growth of phytopathogenic fungi colonies, % Fusarium culmorum Tests field: 93%
Rhyzoctonia aderholdii [26]
  Inhibition of growth of phytopathogenic fungi colonies, % Rhyzoctonia aderholdii test field: 100%
Botrytis cinereae [27]
  Inhibition of growth of phytopathogenic fungi colonies, % Botrytis cinereae test field: 0%
Penicillium cyclopium [28]
  Inhibition of growth of phytopathogenic fungi colonies, % Penicillium cyclopium Tests field: 93%
Venturia inaequalis [29]
  Inhibition of growth of phytopathogenic fungi colonies, % Venturia inaequalis test field: 44%
Alternaria sobani [30]
  Inhibition of growth of phytopathogenic fungi colonies, % Alternaria sobani test field: 100%
Rhyzoctonia violaceae [31]
  Inhibition of growth of phytopathogenic fungi colonies, % Rhyzoctonia violaceae test field: 47%
Rhoma betae [32]
  Inhibition of growth of phytopathogenic fungi colonies, % Rhoma betae test field: 62%

## O=C(NP(=O)(Nc1ccccc1)Nc1ccccc1)c1ccc(Br)cc1 [Example 4, para-bromobenzoilamidophosphoric acid dianilide]
Domestic flies [1]
  Death of flies, % tests laboratory: 94%
Solubility (qualitative)
  solubility: soluble in water, alcohols, acetone
Domestic flies [2]
  Death of flies, % tests large-scale: 93%

From EP0407583A1, “DERIVATIVES OF DICHLOR[…] ACYLAMIDO[…] AND INSECTICIDAL, FU[…] HEMATOCIDAL PREPARATIONS BASED ON THEM” (priority 1989, dated 1990)
